Earlier results on 2 molecules are cited in EP4702989A1, “DRUG FOR TREATING LOCALLY ADVANCED UNRESECTABLE OR METASTATIC COLORECTAL CANCER AND USE THEREOF” (Shenzhen Chipscreen Biosciences Co., Ltd., priority 2023, dated 2024).

Read-outs that look alike come from different tables or passages of the source.

The conditions of series [1]: FRESCO-2; >=3 treatment lines; sample size 461; 2023 Lancet.
The conditions of series [2]: FRESCO; >=3 treatment lines; sample size 278; 2018 JAMA.
For series [3] the following is noted: CORRECT; >=2 treatment lines; sample size 505; 2013 Lancet.
For series [4] the following is noted: CONCUR; >=3 treatment lines; sample size 136; 2015 Lancet.

As for `CNC(=O)c1c(C)oc2cc(Oc3ncnc4cc(OC)c(OC)cc34)ccc12` [Fruquintinib], the “Median PFS (months)” value in series [1] and in series [2] was 3.7 months throughout. Further, the ORR is listed as 1.5% in series [1] and 4.7% in series [2].

As for `CNC(=O)c1cc(Oc2ccc(NC(=O)Nc3ccc(Cl)c(C(F)(F)F)c3)c(F)c2)ccn1` [Regorafenib], the “Median PFS (months)” value in series [3] was 1.9 months; in series [4], 3.2 months. In addition, the results for the ORR in series [3] and in series [4] were 1.0% and 4.4%, respectively.
